The source of these data is patent US9670166B2, “Substituted bicyclic dihydropyrimidinones and their use as inhibitors of neutrophil elastase activity” (Boehringer Ingelheim International GmbH, priority 2013, dated 2017).

What is called Aqueous solubility is the dissolved amount per volume that the medium holds.

Data set [1] in a line: Metabolic stability with human liver microsomes. The following applies: pooled human liver microsomes 1 mg/ml, test compound 1 μM, 37° C., NADPH. For orientation: Liver microsomes are a subcellular fraction often used to study metabolism.
A short description of data set [2]: Metabolic stability with human hepatocytes. The note with it: human hepatocyte suspension, 1 μM, scaled by well stirred model. The data set is classed as in vitro ADME.
Procedure: The cells are incubated for six hours (incubator, orbital shaker) and samples (25 μl) are taken at 0, 0.5, 1, 2, 4 and 6 hours. Samples are transferred into acetonitrile and pelleted by centrifugation (5 min) The supernatant is transferred to a new 96-deepwell plate, evaporated under nitrogen and resuspended. The decline of parent compound is analyzed by LC-MS/MS.
The intrinsic clearance CL_[sequence] is calculated as follows: CL_[sequence]=Dose/AUC=(C0/CD)/(AUD+clast/k)*1,000/60
(C0: initial concentration in the incubation [μM], CD: cell density of vital cells [10^6 cells/mL], AUD: area under the data [μM*h], clast: concentration of last data point [μM], k: slope of the regression line for parent decline [h^−1])
The calculated in vitro hepatic intrinsic clearance can be scaled up to the intrinsic in vivo hepatic clearance and used to predict hepatic in vivo blood clearance (CL) by the use of a liver model (well stirred model): CL_[sequence]_INVIVO [ml/min/kg]=(CL_[sequence] [μL/min/10^6 cells]*hepatocellularity [10^6 cells/g liver]*liver factor [g/kg bodyweight])/1,000 CL [ml/min/kg]=CL_[sequence]_INVIVO [ml/min/kg]*hepatic blood flow [ml/min/kg]/(CL_[sequence]_INVIVO [ml/min/kg]+hepatic blood flow [ml/min/kg]) Qh [%]=CL [ml/min/kg]/hepatic blood flow [ml/min/kg])
The next data set concerns Caco-2 cells. Put plainly: Drug transport across human Caco-2 cells. The data set is classed as in vitro ADME. The following applies: for Efflux ratio: PEBA/PEAB; for PEBA: basal-to-apical; for PEBA / PEAB: Caco-2 monolayers, pH 7.2, 37° C.; for PEAB: apical-to-basal.
The next data set can be described thus: Aqueous solubility. The note with it: McIlvaine buffer pH 6.8, 2.5% DMSO, 24 h shaking. The data set is classed as physicochemical. On the procedure: Assay for Determination of Aqueous Solubility […] After 24 h of shaking, the solutions or suspensions are filtered and analyzed by LC-UV. The amount dissolved in buffer is compared to the amount dissolved in the acetonitrile/water (1/1) solution.

SMILES strings stand for the structures. Values joined by “and” are separate entries in the source; they are usually repeats but may differ in a detail not shown here. Equal values may be shown once. A value given as a limit tells only on which side of the number the result lay.

Source text for Caco-2 cells: Assay for Determination of Drug Transport Across Human Caco-2 Cells
The assay provides information on the potential of a compound to pass the cell membrane, on the extent of oral absorption as well as on whether the compound is actively transported by uptake and/or efflux transporters.
The compounds are assigned to permeability/absorption classes by comparison of the AB permeabilities with the AB permeabilities of reference compounds with known in vitro permeability and oral absorption in the human. Identical or similar permeabilities in both transport directions indicate passive permeation, vectorial permeability points to additional active transport mechanisms. […] Active transport is concentration-dependently saturable.
Caco-2 cells (1-2*10^5 cells/cm^2 area) are seeded on filter inserts (Costar transwell polycarbonate or PET filters, 0.4 μm pore size) and cultured (DMEM) for 10 to 25 days. Compounds are dissolved in appropriate solvent (like DMSO, 1-20 mM stock solutions). […] The transport solution (TL) is applied to the apical or basolateral donor side for measuring A-B or B-A permeability (3 filter replicates), respectively. The receiver side contains HTP-4 buffer supplemented with 2% BSA. […] Sampled receiver volumes are replaced with fresh receiver solution.

As for `CCNC(=O)N1C(=O)N(c2ccnc(C(F)(F)F)c2)C2=C(C(=O)CC2)C1c1ccc(C#N)cc1` (racemic) [Example 54.2], in data set [1], the “t1/2 INVITRO” value was over 2.17 h.
As for `CN(C)C(=O)CN1C(=O)N(c2cccc(C(F)(F)F)c2)C2=C(C(=O)CC2)C1c1ccc(C#N)cc1` (stereo not drawn) [Example 6.2], in data set [2], the “CL (predicted human hepatic in vivo blood clearance)” value was 6 mL/min/kg.
Consider `N#Cc1ccc(C2C3=C(CCC3=O)N(c3cccc(C(F)(F)F)c3)C(=O)N2CC(=O)N2CCC2)cc1` (stereo not drawn) [Example 6.3], for which, in data set [1], the “t1/2 INVITRO” value is over 2.17 h. Also, the “CL (predicted human hepatic in vivo blood clearance)” value in data set [2] is 4 mL/min/kg.
Take `CNC(=O)N1C(=O)N(c2cccc(C(F)(F)F)c2)C2=C(C(=O)CC2)[C@H]1c1ccc(C#N)cc1` [Example 7.1A, (R)-4-(4-Cyanophenyl)-N-methyl-2,5-dioxo-1-(3-(trifluoromethyl)phenyl)-4,5,6,7-tetrahydro-1H-cyclopenta[d]pyrimidine-3(2H)-carboxamide]: in data set [2], the “CL (predicted human hepatic in vivo blood clearance)” value was 3 mL/min/kg.
On to `N#Cc1ccc([C@@H]2C3=C(CCC3=O)N(c3cccc(C(F)(F)F)c3)C(=O)N2C(=O)NCCO)cc1` [Example 7.2A, (R)-4-(4-Cyanophenyl)-N-(2-hydroxyethyl)-2,5-dioxo-1-(3-(trifluoromethyl)phenyl)-4,5,6,7-tetrahydro-1H-cyclopenta[d]pyrimidine-3(2H)-carboxamide], for which, in data set [2], the “CL (predicted human hepatic in vivo blood clearance)” value is 0 mL/min/kg.
`N#Cc1ccc(C2C3=C(CCC3=O)N(c3cccc(C(F)(F)F)c3)C(=O)N2C(=O)NCCCO)cc1` (stereo not drawn) [Example 7.3]: the “t1/2 INVITRO” value in data set [1] was over 2.17 h. Moreover, the “CL (predicted human hepatic in vivo blood clearance)” value in data set [2] is 7 mL/min/kg. Besides, the Efflux ratio with Caco-2 cells stood at 7.1.
On to `C[S+]([O-])CCNC(=O)N1C(=O)N(c2cccc(C(F)(F)F)c2)C2=C(C(=O)CC2)C1c1ccc(C#N)cc1` (stereo not drawn) [Example 7.6], for which, in data set [1], the “t1/2 INVITRO” value is over 2.17 h.
Turning to `CS(=O)(=O)N1C(=O)N(c2cccc(C(F)(F)F)c2)C2=C(C(=O)CC2)[C@H]1c1ccc(C#N)cc1` [Example 9A, (R)-4-(3-(Methylsulfonyl)-2,5-dioxo-1-(3-(trifluoromethyl)phenyl)-2,3,4,5,6,7-hexahydro-1H-cyclopenta[d]pyrimidin-4-yl)benzonitrile], in data set [2], the “CL (predicted human hepatic in vivo blood clearance)” value is 0 mL/min/kg.
Turning to `CCS(=O)(=O)c1cc(C#N)ccc1C1NC(=O)N(c2cccc(C(F)(F)F)c2)C2=C1C(=O)CC2` (stereo not drawn) [Example 14, 4-(2,5-Dioxo-1-(3-(trifluoromethyl)phenyl)-2,3,4,5,6,7-hexahydro-1H-cyclopenta[d]pyrimidin-4-yl)-3-(ethylsulfonyl)benzonitrile], the “CL (predicted human hepatic in vivo blood clearance)” value in data set [2] was 4 mL/min/kg.
`CS(=O)(=O)c1cc(C#N)ccc1C1NC(=O)N(c2cccc(C(F)F)c2)C2=C1C(=O)CC2` (stereo not drawn) [Example 15.4, 4-(1-(3-(difluoromethyl)phenyl)-2,5-dioxo-2,3,4,5,6,7-hexahydro-1H-cyclopenta[d]pyrimidin-4-yl)-3-(methylsulfonyl)benzonitrile]: the “CL (predicted human hepatic in vivo blood clearance)” value in data set [2] is 0 mL/min/kg.
As to `CS(=O)(=O)c1cc(C#N)ccc1C1C2=C(CCC2=O)N(c2cccc(C(F)(F)F)c2)C(=O)N1CC(=O)N1CC2CC2C1` (stereo not drawn) [Example 22.4], the “t1/2 INVITRO” value in data set [1] was over 2.17 h.
As to `CS(=O)(=O)c1cc(C#N)ccc1[C@@H]1C2=C(CCC2=O)N(c2cccc(C(F)(F)F)c2)C(=O)N1CC#N` [Example 23, (S)-4-(3-(Cyanomethyl)-2,5-dioxo-1-(3-(trifluoromethyl)phenyl)-2,3,4,5,6,7-hexahydro-1H-cyclopenta[d]pyrimidin-4-yl)-3-(methylsulfonyl)benzonitrile], in data set [2], the “CL (predicted human hepatic in vivo blood clearance)” value was 0 mL/min/kg.
`CS(=O)(=O)c1cc(C#N)ccc1C1C2=C(CCC2=O)N(c2cccc(C(F)(F)F)c2)C(=O)N1CCCO` (stereo not drawn) [Example 24.1]: the “t1/2 INVITRO” value in data set [1] worked out at 1.67 h.
Regarding `CN1C(=O)N(c2cccc(C(F)(F)F)c2)C2=C(C(=O)CC2)[C@H]1c1ccc(C#N)cc1S(C)(=O)=O` [Example 25, (S)-4-(3-Methyl-2,5-dioxo-1-(3-(trifluoromethyl)phenyl)-2,3,4,5,6,7-hexahydro-1H-cyclopenta[d]pyrimidin-4-yl)-3-(methylsulfonyl)benzonitrile], in data set [2], the “CL (predicted human hepatic in vivo blood clearance)” value was 2 mL/min/kg.
For the compound `C[C@H](O)CNC(=O)N1C(=O)N(c2cccc(C(F)(F)F)c2)C2=C(C(=O)CC2)C1c1ccc(C#N)cc1` (stereo partly drawn) [Example 41.1], the “t1/2 INVITRO” value in data set [1] is over 2.17 h. Moreover, the “CL (predicted human hepatic in vivo blood clearance)” value in data set [2] is 2 mL/min/kg. For the same compound, in the data set on Caco-2 cells, the Efflux ratio is 8.9 and 4.8.
On to `C[C@H](CO)NC(=O)N1C(=O)N(c2cccc(C(F)(F)F)c2)C2=C(C(=O)CC2)C1c1ccc(C#N)cc1` (stereo partly drawn) [Example 41.4], for which, in data set [1], the “t1/2 INVITRO” value was over 2.17 h. Moreover, in data set [2], the “CL (predicted human hepatic in vivo blood clearance)” value is 5 mL/min/kg. The Efflux ratio in the data set on Caco-2 cells was 8.7.
Take `N#Cc1ccc(C2C3=C(CCC3=O)N(c3cccc(C(F)(F)F)c3)C(=O)N2C(=O)NC2(CO)CC2)cc1` (stereo not drawn) [Example 41.5]: in the data set with Caco-2 cells, the Efflux ratio came out at 8.7 and the PEBA turned out to be 77 ×10⁻⁶ cm/s.
In the case of `N#Cc1ccc(C2C3=C(CCC3=O)N(c3cccc(C(F)(F)F)c3)C(=O)N2C(=O)NC2CCOCC2)cc1` (stereo not drawn) [Example 41.16], the “t1/2 INVITRO” value in data set [1] was over 2.17 h. Besides, the Efflux ratio with Caco-2 cells was 1.0.
Take `CC(C)(O)CCNC(=O)N1C(=O)N(c2cccc(C(F)(F)F)c2)C2=C(C(=O)CC2)C1c1ccc(C#N)cc1` (stereo not drawn) [Example 41.17]: the “t1/2 INVITRO” value in data set [1] was over 2.17 h. In data set [2], the “CL (predicted human hepatic in vivo blood clearance)” value was 3 mL/min/kg. In addition, the Efflux ratio in the data set on Caco-2 cells is on record as 3.5.
On to `CC(C)(O)CNC(=O)N1C(=O)N(c2cccc(C(F)(F)F)c2)C2=C(C(=O)CC2)[C@H]1c1ccc(C#N)cc1` [Example 41A, (R)-4-(4-Cyanophenyl)-N-(2-hydroxy-2-methylpropyl)-2,5-dioxo-1-(3-(trifluoro-methyl)phenyl)-4,5,6,7-tetrahydro-1H-cyclopenta[d]pyrimidine-3(2H)-carboxamide], for which the “CL (predicted human hepatic in vivo blood clearance)” value in data set [2] is 0 mL/min/kg.
For `N#Cc1ccc(C2C3=C(CCC3=O)N(c3cccc(C(F)(F)F)c3)C(=O)N2C(=O)N[C@@H]2CCC[C@H]2O)cc1` (stereo partly drawn) [Example 42.3], in data set [1], the “t1/2 INVITRO” value was over 2.17 h. The Aqueous solubility in “Aqueous solubility” is 20 µg/mL. Also, in the data set on Caco-2 cells, the Efflux ratio turned out to be 2.4, the PEAB was 36.2 ×10⁻⁶ cm/s and the PEBA was found to be 86 ×10⁻⁶ cm/s.
In turn, `N#Cc1ccc(C2C3=C(CCC3=O)N(c3cccc(C(F)(F)F)c3)C(=O)N2C(=O)N[C@H]2COC[C@H]2O)cc1` (stereo partly drawn) [Example 42.6] showed an Aqueous solubility in “Aqueous solubility” of 67 µg/mL. The “CL (predicted human hepatic in vivo blood clearance)” value in data set [2] is 5 mL/min/kg.
For `N#Cc1ccc([C@@H]2C3=C(CCC3=O)N(c3cccc(C(F)(F)F)c3)C(=O)N2C(=O)N[C@H]2CCC[C@@H]2O)cc1` [Example 45.4], the “t1/2 INVITRO” value in data set [1] was over 2.17 h. This compound also displayed an Aqueous solubility in the data set “Aqueous solubility” of 28 µg/mL. Further, in the data set on Caco-2 cells, the Efflux ratio is reported as 2.0, the PEAB came out at 38.1 ×10⁻⁶ cm/s and the PEBA is 77.2 ×10⁻⁶ cm/s.
Take `CS(=O)(=O)c1cc(C#N)ccc1[C@@H]1C2=C(CCC2=O)N(c2cccc(C(F)(F)F)c2)C(=O)N1C(=O)NC1CC1` [Example 47.4]: in data set [1], the “t1/2 INVITRO” value is over 2.17 h. For the same compound, the Aqueous solubility in the data set “Aqueous solubility” came to 19 µg/mL. Moreover, in the data set on Caco-2 cells, the PEAB stood at 7.74 ×10⁻⁶ cm/s and the PEBA came to 85.5 ×10⁻⁶ cm/s.
On the same counts, the results for `CC(C)NC(=O)N1C(=O)N(c2cccc(C(F)(F)F)c2)C2=C(C(=O)CC2)[C@H]1c1ccc(C#N)cc1S(C)(=O)=O` [Example 47.5] are over 2.17 h, 16 µg/mL, 19.2 ×10⁻⁶ cm/s and 86.7 ×10⁻⁶ cm/s.
As for `CNC(=O)N1C(=O)N(c2cccc(C(F)(F)F)c2)C2=C(C(=O)CC2)C1c1ccc(C#N)cn1` (stereo not drawn) [Example 50.1], the “CL (predicted human hepatic in vivo blood clearance)” value in data set [2] is 1 mL/min/kg.
Turning to `CNC(=O)N1C(=O)N(c2cccc(C(F)F)c2)C2=C(C(=O)CC2)C1c1ccc(C#N)cc1` (stereo not drawn) [Example 52.1], in data set [1], the “t1/2 INVITRO” value is over 2.17 h. The compound further had an Aqueous solubility in the data set “Aqueous solubility” of 41 µg/mL. Moreover, in the data set with Caco-2 cells, the Efflux ratio is on record as 1.0, the PEAB was found to be 57.1 ×10⁻⁶ cm/s and the PEBA amounted to 58.3 ×10⁻⁶ cm/s.
As to `N#Cc1ccc(C2C3=C(CCC3=O)N(c3cccc(C(F)F)c3)C(=O)N2C(=O)NCCO)cc1` (stereo not drawn) [Example 52.3], the “t1/2 INVITRO” value in data set [1] is over 2.17 h. In the data set “Aqueous solubility”, this compound registered an Aqueous solubility of 91 µg/mL.
Turning to `N#Cc1ccc([C@@H]2C3=C(CCC3=O)N(c3cccc(C(F)F)c3)C(=O)N2C(=O)NCCCO)cc1` [Example 52A, (R)-4-(4-Cyanophenyl)-1-(3-(difluoromethyl)phenyl)-N-(3-hydroxypropyl)-2,5-dioxo-4,5,6,7-tetrahydro-1H-cyclopenta[d]pyrimidine-3(2H)-carboxamide], the “CL (predicted human hepatic in vivo blood clearance)” value in data set [2] was 8 mL/min/kg.
Turning to `CS(=O)(=O)c1cc(C#N)ccc1C1C2=C(CCC2=O)N(c2cccc(C(F)F)c2)C(=O)N1C(=O)NC1CC1` (stereo not drawn) [Example 53.3], the Aqueous solubility in the data set “Aqueous solubility” was determined as 34 µg/mL.
As for `CS(=O)(=O)c1cc(C#N)ccc1[C@H]1NC(=O)N(c2cccc(C(F)(F)F)c2)C2=C1C(=O)CC2` [example 10A, (S)-4-(2,5-Dioxo-1-(3-(trifluoromethyl)phenyl)-2,3,4,5,6,7-hexahydro-1H-cyclopenta[d]pyrimidin-4-yl)-3-(methylsulfonyl)benzonitrile], in data set [2], the “CL (predicted human hepatic in vivo blood clearance)” value was 0 mL/min/kg. In addition, in the data set with Caco-2 cells (Caco-2, compared to example 44 disclosed in US 2011/0034433), the “AB permeability (comparison in words)” value is “improved AB permeability”.
